Measurements published in paper PMC9014415, “Repositioning of a Diaminothiazole Series Confirmed to Target the Cyclin-Dependent Kinase CRK12 for Use in the Treatment of African Animal Trypanosomiasis” (Journal of Medicinal Chemistry, 2022).

What was measured:
[1] = Aqueous kinetic solubility by laser nephelometry; format: physicochemical; details: MilliQ water with 2.5% DMSO, read-out: Sol (kinetic solubility); for solubility kinetic: range 250-12 µM
Procedure: 2. Drug metabolism and pharmacokinetics
The aqueous solubility of test compounds was measured using laser nephelometry. Compounds were subject to serial dilution from 10 mM to 0.5 mM in DMSO. Aliquot were then mixed with MilliQ water to obtain an aqueous dilution plate with a final concentration range of 250 – 12 µM. The final DMSO concentration in these plates was 2.5%. Triplicate aliquots were transferred to a flat-bottomed polystyrene plate which was immediately read on a NEPHELOstar nephelometer (BMG Lab Technologies). The laser scatter caused by insoluble particulates (relative nephelometry units, RNU) was plotted against compound concentration using a segmental regression fit, with the point of inflection being quoted as the compound’s aqueous solubility (µM).
Solubility of compound 1 was measured by a different method. Here, compound 1 was dissolved in DMSO to give a 10 mM solution and solubility test samples prepared by adding a volume (5 µL) of this stock solution to phosphate buffered saline, pH 7.4 (195 µL, Sigma-Aldrich). This

T. vivax [2] = test: NMRI mouse efficacy model, T. vivax; format: in vivo, Trypanosoma vivax; details: mice; 10 mg/kg SC once daily for 4 days
Procedure: (§1) 3. In vivo efficacy studies
(§2) The T. congolense (IL3000) and T. vivax (ILRAD V34) cell lines7, 8, both originating from Kenya, were used in the following in vivo mouse studies. For studies in cattle, either Trypanosoma congolense (savannah) KONT 2/133, 224) or T. vivax STIB 719 was used.
(§3) 3.1 Mouse efficacy studies for T. brucei brucei.
(§4) Mouse efficacy studies for T. brucei brucei were carried out as previously detailed.9 3.2 NMRI mouse efficacy studies for T. congolense and T. vivax.
(§5) Mouse models of infections were carried out using standardized protocols. Briefly, 1 mL samples of cryopreserved T. congolense, or T. vivax-infected blood harvested directly from an infected mouse, were diluted with Hanks Balanced Salt Solution plus 20 mM glucose (HBSS+G) to 5 x 10^4 trypomastigotes/mL (5 x 105 for T. vivax). Female mice (NMRI) were inoculated IP on day 0 with 0.2 mL/animal (equivalent to ~ 1 x 104 T. congolense or ~ 1 x 105 T. vivax per animal). The level of parasitaemia was inspected microscopically on day 3 using tail blood smears, counting 20 high powered fields (× 400 magnification). For untreated or treated animals whose tail smears exceeded 50 parasites/field, precise parasite levels were established using a Neubauer haemocytometer; mice with a parasite burden over 1 x 108 were promptly and humanely terminated (T. congolense only, from our experience the mice will not survive for a further 24 h). Alternatively, in the case of T. vivax-infected mice the immune system will bring the infection to a sub-lethal level (below limit of detection) […]
(§6) followed by cycles of high and low parasitaemia. Eventually mice infected with T. vivax succumb to the infection between 30 – 60 days post-infection.
(§7) Suppression of parasitaemia - mouse
(§8) On day 3 post-infection, animals were randomly allocated to groups, with 3 mice/group. Infected animals were dosed with one of the following: diaminazene diaceturate IP. – 40 mg/kg once only as a control (early-stage trypanocide used to clear the parasites in the systemic circulation and in tissues other than CNS), compound 1 (SC) at 3, 10, 30 and 50 mg free base/kg twice and once daily for 4 d or a single dose, or compound 2 (SC) at 3 and 10 mg free base /kg once daily for 4 d, once daily for 2 d or a single dose, one group of 3 mice acted as an untreated control group. The dose solutions were prepared daily, using 5% DMSO: 40% PEG400: 55% MilliQ H2O for test compounds and 10% DMSO: 90% peanut oil for standard drugs. Alternatively, compound 2 was delivered for 48 h via SC implanted ALZET osmotic pumps (6, 12, 25 and 50 mg free base/mL, vehicle: 50% DMSO […]
(§9) and 50% deionized water).
(§10) Response to treatment was determined by monitoring parasitaemia twice a week until day 21.
(§11) After day 21, the mice were checked once a week until 63 d post-treatment. Mice surviving to the end of the experiment, and with blood smears clear of parasites, were considered cured. […]
(§12) The parasites were obtained from a donor calf. This isolate is resistant to diminazene (20 mg/kg) and isometamidium (1 mg/kg) in cattle, and diminazene (7 mg/kg) and isometamidium (>1 mg/kg) in mice. Calves were parasitaemic by study day 6. Calves (n = 5) were treated with compound 1 (5 mg/kg, SC, twice 12 h apart) on study

T. congolense [3] = test: NMRI mouse efficacy model, T. congolense; format: in vivo, Trypanosoma congolense; details: mice; 10 mg/kg SC once daily for 4 days
Procedure: as §1, §2, §3, §4, §5, §6, §7, §8, §9, §10, §11, §12

[4] = Bovine liver microsome stability; format: in vitro ADME; details: intrinsic clearance
Procedure: 2.2 Microsomal stability studies […]
(b) Bovine liver microsome stability. Test compounds (0.5 µM) were incubated with 0.5 mg/mL bovine liver microsomes (Xenotech LLC TM) in 50 mM potassium phosphate buffer, pH7.4 and the reaction initiated upon addition of excess NADPH (8 mg/mL in 50 mM potassium phosphate buffer, pH7.4).
Aliquots (50 µL) of the incubation mixture were taken at time zero, 3, 6, 9, 15 and 30 min then mixed with acetonitrile (100 µL) to stop the reaction. An internal standard was added to all samples, prior to centrifugation (10 min, 1,665 g, RT) to sediment precipitated protein. Reaction plates were then sealed prior to UPLCMSMS analysis using a Quattro Premier XE (Waters corporation, USA).
XLfit (IDBS, UK) was used to calculate the exponential decay and consequently the rate constant (k) from the ratio of peak area of test compound to internal standard at each timepoint. The rate of intrinsic clearance (CLi) of each test compound was then calculated using the following […]
CLi(mL/min/g liver) = k x V x microsomal protein yield
Where V (mL/mg protein) is the incubation volume/ mg protein added and microsomal protein yield is taken as 52.5 mg protein/ g of liver. Verapamil (0.5 µM) was used as a positive control to confirm acceptable assay performance. […]

L6 cells = test: Cytotoxicity assay, rat skeletal myoblasts (L6); format: cell-based
Procedure: 1.4 Cytotoxicity assays – Rat skeletal myoblasts (L6)
The cytotoxicity of test compounds was evaluated using a rat skeletal myoblast (L6) cell line, as previously described3, but with minor modifications. Cells were grown in RPMI media supplemented with 10% (v/v) fetal calf serum. L6 cells at a seeding density of 2 x 10^4 cells/mL were incubated in microtiter plates overnight at 37 °C and 5 % CO2 until adherent. The following day, test compounds were added to the plates (3-fold serial dilutions), prior to incubation for 69 h. Following incubation, 10 µL of Resazurin (12.5 mg in 100 mL phosphate buffered saline, Aldrich) was added to each well and the plates were incubated for a further 3 h. The plates were read using a SpectraMax (Gemini XS) fluorescence reader at an excitation wavelength of 536 nm and an emission wavelength of 588 nm. EC50 values were determined using SOFTmax Pro 5.2 analysis software. All experiments were conducted as technical replicates, with at least three biological replicates. […]

T. congolense [5] = test: In vitro drug sensitivity assay, T. congolense (IL3000); format: cell-based; details: Trypanosoma congolense; IL3000 strain
Procedure: 1.2 In vitro drug sensitivity assays - Trypanosoma congolense
EC50 values for test compounds against T. congolense (IL3000 strain) were conducted as previously described3 with minor modifications.4 Briefly, trypanosome cell densities were determined using a CASY cell counter (Schärfe) and diluted to a seeding density of 2 x 105 trypanosomes/mL. BSF trypanosomes were grown in HMI-9 (IMDM) media supplemented with 20% (v/v) bovine serum.1 Test compounds were resuspended to a final concentration of 10 mg/mL in DMSO. Assays plates were incubated at 34 °C with 5 % CO2, for a total of 69 h, prior to addition of 10 µL of Resazurin (12.5 mg in 100 mL phosphate buffered saline, Aldrich) into each well, followed by a further 3 h incubation. Absorbance was read using a SpectraMax (Gemini XS) fluorescence reader at an excitation wavelength of 536 nm and an emission wavelength of 588 nm. EC50 values were determined using SOFTmax Pro 5.2 analysis software. All experiments were conducted with technical duplicates, and at least three biological replicates. […]

T. vivax [6] = test: Ex vivo drug sensitivity assay, T. vivax (STIB 719/ILRAD 560); format: cell-based; details: Trypanosoma vivax
Procedure: Test compounds were resuspended to a final concentration of 10 mg/mL in DMSO. […]
1.3 Ex vivo drug sensitivity assays - Trypanosoma vivax
Since T. vivax cannot be cultured axenically, BSF trypanosomes were harvested from an infected mouse with high parasitemia via cardiac puncture and used directly in ex vivo assays. EC50 values were determined against T, vivax (STIB 719/ ILRAD 560) as previously described3, with minor modifications. Briefly, cell densities were determined using a Neubauer chamber and then diluted to a seeding density of 4 x 105 trypanosomes / mL. BSF trypanosomes were cultured in HMI-9 (IMDM) media containing 20% (v/v) bovine serum. Assay plates were incubated at 37 °C with 5 % CO2, for a total of 45 h prior to addition 10 µL of Resazurin (12.5 mg in 100 mL phosphate buffered saline, Aldrich) into each well, followed by a further 3 h incubation. Absorbance was read using a SpectraMax (Gemini XS) fluorescence reader at an excitation wavelength of 536 nm and an emission wavelength of 588 nm. EC50 values were determined using SOFTmax Pro 5.2 analysis […]
software. […]

Structure (SMILES)	solubility kinetic [1] [µM]	Efficacy at 10 mg/kg SC for 4 days, T. vivax (T. vivax [2])	Efficacy at 10 mg/kg SC for 4 days, T. congo (T. congolense [3])	Bovine Microsome Cli (BLM: bovine microsomal clearance) [4] [mL/min/g]	solubility kinetic at 24 h ([1]; pH 7.4, range 250-12 µM) [µM]	EC50 (L6 cells) [nM]	EC50 (T. congolense [5]) [nM]	EC50 (T. vivax [6]) [nM]
CC(C)CS(=O)(=O)N[C@H]1CC[C@H](Nc2nc(N)c(C(=O)c3c(F)cc(CN4CCN(C)CC4)cc3F)s2)CC1.Cl [Compound 3, N-((trans)-4-((4-Amino-5-(2,6-difluoro-4-((4-methylpiperazin-1-yl)methyl)benzoyl)thiazol-2-yl)amino)cyclohexyl)-2-methylpropane-1-sulfonamide Hydrochloride]	> 250	No cure (0/3)	Partial cure (1/3)	<0.5				
CC(C)CS(=O)(=O)N[C@H]1CC[C@H](Nc2nc(N)c(C(=O)c3c(F)cc(CN4CCCC4)cc3F)s2)CC1.Cl [Compound 5, N-((trans)-4-((-4-Amino-5-(2,6-difluoro-4-(pyrrolidin-1-ylmethyl)benzoyl)thiazol-2-yl)amino)cyclohexyl)-2-methyl-propane-1-sulfonamide Hydrochloride]		Full cure (3/3)	Partial cure (1/3)	<0.5	220			
CC(C)CS(=O)(=O)N[C@H]1CC[C@H](Nc2nc(N)c(C(=O)c3c(F)cc(CN4CCC4)cc3F)s2)CC1.Cl [Compound 6, N-(((trans)-4-((4-Amino-5-(4-azetidin-1-ylmethyl)-2,6-difluorobenzoyl)thiazol-2-yl)amino)cyclohexyl)-2-methylpropane-1-sulfonamide Hydrochloride]	> 250			1.3		5300	2.5	6.9
CC(C)CS(=O)(=O)N[C@H]1CC[C@H](Nc2nc(N)c(C(=O)c3c(F)cc(CCN(C)C)cc3F)s2)CC1.Cl [Compound 7, N-(((trans)-4-((4-Amino-5-(4-(2-dimethylamino)ethyl)-2,6-difluorobenzoyl)thiazol-2-yl)amino)cyclohexyl)-2-methylpropane-1-sulfonamide Hydrochloride]	> 250			0.8		18000	16	1
CC(C)CS(=O)(=O)N[C@H]1CC[C@H](Nc2nc(N)c(C(=O)c3c(F)cc(CN)cc3F)s2)CC1.Cl [Compound 9, N-((trans)-4-((4-Amino-5-(4-(aminomethyl)-2,6-difluorobenzoyl)thiazol-2-yl)amino)cyclohexyl)-2-methylpropane-1-sulfonamide Hydrochloride]	> 250			<0.5		5900	8.3	0.5
CC(C)CS(=O)(=O)N[C@H]1CC[C@H](Nc2nc(N)c(C(=O)c3c(F)cc(CN4CCOCC4)cc3F)s2)CC1.Cl [Compound 4, N-((trans)-4-((4-Amino-5-(2,6-difluoro-4-((4-morpholinomethyl)benzoyl)thiazol-2-yl)amino)cyclohexyl))-2-methylpropane-1-sulfonamide Hydrochloride]		No cure (0/3)	No cure (0/3)	1				
CC(C)CS(=O)(=O)N[C@H]1CC[C@H](Nc2nc(N)c(C(=O)c3c(Cl)cc(CN(C)C)cc3Cl)s2)CC1.Cl [Compound 11, N-((trans)-4-((4-Amino-5-(4-(dimethylaminomethyl)-2,6-dichlorobenzoyl)thiazol-2-yl)amino)cyclohexyl)-2-methylpropane-1-sulfonamide Hydrochloride]	> 250			7.1		4300	0.59	0.05
